Entries after “also recorded” stand apart in the source; their conditions may differ.
Key:
[1] = system: TNF-R1 (p55); assay: TNF-R1 (p55) morpholino antisense in HUVEC, flow cytometry; type: cell-based, human; conditions: 4 hours
Text: Morpholino phosphorodiamidate (MF) antisense oligonucleotides are used. Other chemical classes of antisense oligonucleotides that can be substituted for morpholinos include but are not limited to phosphorotioate oligonucleotides, N3′-P5′ phosphoramidate oligonucleotides (NP), locked nucleic acid (LNA), 2′-O-methoxyethyl nucleic acid (MOE), 2′-fluoro-arabinonucleic acid (FANA), peptide nucleic acids (PNA) (reviewed in Toulme, Nature Biotech. 19:17, 2001). In the example in FIG. 18, antisense oligonucleotides for TNF-R1 (p55) (5′-[…]-3′)(SEQ ID NO:1), and the beta-globin control oligo (5′-[…]-3′)(SEQ ID NO:2) (Gene Tools Inc.) are used. The transfection mixture is prepared by mixing […] of stock morpholino (0.5 mM), […], and 4 ml of 200 mM EPEI (Ethoxylated PolyEthylenimine), vortexed, incubated at room temperature for 20 minutes, and then mixed with 3.5 ml of serum-free media to give a final 0.6 μM morpholino concentration. HUVEC cells are plated the day before in 24-well plates at 4-6×10e4 cells/well. Cells are washed once with serum-free media and incubated with 0.4 ml of the morpholino transfection mixture at 37° C. for 3 hours. Morpholino is removed, regular media (Epithelial Growth Media with 2% fetal calf serum, Clonetics) is added and cells allowed to recover overnight. The efficiency of loading of cells with morphino is monitored in cells incubated with a fluorescent morpholino, and is typically essentially 100 percent. HUVEC cells are then treated with either TNF-α (0.5 ng/ml), or IL-1 (1 ng/ml), or media only. After 4 hours, cells are harvested and evaluated for the cell surface expression of ICAM-1 (1), VCAM-1 (2), E-selectin (3), and CD31 (4) by flow cytometry. […] The TNF-R1 antisense specifically blocks induction of ICAM-1 and VCAM-1 by TNF-α, while it has no effect on induction of the same markers by the independent cell surface receptor for IL-1.

[2] = system: HUVEC cells; assay: Optimized inflammatory assay combination: HUVEC treated with IL-1+TNF-α+IFN-γ, readout parameters by cell-based ELISA; parameters: species or system human; conditions: for activity (altered biomap) in the optimized assay combination: HUVEC, TNF-α (5 ng/ml)+IFN-γ (100 ng/ml)+IL-1, 24 hours
Description: Primary human umbilical vein endothelial cells (HUVEC) are used. Other cells that may replace HUVEC in the screen include primary microvascular endothelial cells, aortic or arteriolar endothelial cells or endothelial cell lines such as EAhy926 or E6-E7 4-5-2G cells or human telomerase reverse transcriptase-expressing endothelial cells (Simmons, J. Immunol., 148:267, 1992; Rhim, Carcinogenesis 19:673, 1998; Yang, J. Biol. Chem. 274:26141, 1999). 2×10^4 cells/ml are cultured to confluence in EGM-2 (Clonetics). Other media that may replace EGM-2 include EGM (Clonetics) and Ham's F12K medium supplemented with 0.1 mg/ml heparin and 0.03-0.05 mg/ml endothelial cell growth supplement (ECGS) and 10% FBS, or medium M199 (Life Technologies, Inc.) containing 20% fetal bovine serum and 2 ng/ml basic fibroblast growth factor (Jaffe, J. Clin. Invest. 52:2745, 1973; Hoshi, PNAS 81:6413, 1984). The disease environment present in chronic inflammatory diseases, such as Crohn's disease, differs from the normal condition by increased presence of multiple biologically active agents including IL-1, TNF-α, and IFN-γ (Woywodt, 1994; Kakazu, 1999). Other biologically active agents that may be increased in chronic inflammatory disease environments include IL-4, IL-6, IL-8, IL-12, IL-13, IL-18, TGFbeta, and histamine, as well as activated leukocytes and their products (Daig, 1996, Gut 38:216; Woywodt, 1994, Eur. cytokine Netw. 5:387; Kakazu, 1999 Am J. Gastroenterol. 94:2149; Pizarro, 1999, J. Immunol. 162:6829; Monteleone, 1999, J. Immunol. 163:143; […] Enteral Nutr 23:S20; Beck, 1999, […]. Bowel Dis. 5:44). Optimized assay combinations will contain at least two, and preferably three, four or more of these biologically active agents. Concentrations of agents are standard according to the literature, typically at physiologic concentrations. Concentrations may also be determined experimentally as the amount required to saturate the relevant receptor. A useful feature of the present invention is that combinatorial effects of multiple factors are observed over wide ranges of factor concentrations. Based on the factors included in an assay combination, a set of parameters for including in a biomap are selected. The experiments provided in FIG. 1A-1C illustrate the usefulness of the present invention in compound screening applications. […] After 24 hours, cultures are washed and evaluated for the presence of the parameters ICAM-1 (1), VCAM-1 (2), E-selectin (3), IL-8 (4), CD31 (5), HLA-DR (6) and MIG (7) by cell-based ELISA as described (Melrose, J. Immunol. 161:2457, 1998). For this, plates are blocked with 1% Blotto for 1 hr, and treated with primary antibodies (obtained from Pharmingen and Becton Dickinson) at 1 ng/ml for 2 hr. After washing, secondary peroxidase-conjugated anti-mouse IgG antibody (Promega) at 1:2500 is applied for 45 min. After washing, TMB substrate (Kierkegaard & Perry) is added and color developed. Development is stopped by addition of H2SO4 and the absorbance at 450 nm (subtracting the background absorbance at 600 nm) is read with a Molecular Dynamics plate reader. The relative expression levels of each parameter are indicated by the OD at 450 nm shown along the y-axis. The mean+/-SD from triplicate samples is shown. The assay combinations shown in FIG. 1 are useful in screening compounds that modulate TNF-α, IL-1 and IFN-γ signaling pathways, however, compounds must be evaluated separately in all three assay combinations to identify compounds that selectively modulate one or more of these pathways. In addition, compounds that selectively modulate combinatorial effects of these pathways cannot be distinguished. […] Confluent cultures of HUVEC cells are treated with TNF-α (5 ng/ml)+IFN-γ (100 ng/ml)+IL-1 (1 ng/ml) in the presence or absence of neutralizing anti-TNF-α or control antibody (Goat anti-IgG). […] In FIG. 3A, the relative expression of each parameter is shown along the y-axis as average value of the OD measured at 450 nm of triplicate samples. […]

[3] = system: HUVEC cells; assay: Lactate dehydrogenase (LDH) in HUVEC culture supernatants, CytoTox96 assay; type: cell-based, human; conditions: endothelial cell cultures
Description: Effect of over-expression of bcl-2 and bcl-xl proteins on a panel of assay combinations. HUVEC cells were transduced with either Bcl-2, Bcl-xL or control empty vector (control). Confluent cultures were treated with either ceramide (10 μm), TNF-α (5 ng/ml), ceramide (10 μm)+TNF-α (5 ng/ml), or media only. After 24 hours, cells were washed and evaluated for the surface expression of ICAM-1 (1), VCAM-1 (2), and MIG (3) by cell-based ELISA performed as described in FIG. 1. Cell supernatants were collected and analyzed for the presence of lactate dehydrogenase LDH (4) by CytoTox96 assay (Promega).
A panel of assay combinations that reproduces aspects of the response of the endothelial cells to inflammatory processes and stimuli enhancing apoptosis is used. […] Endothelial cells cultured under basal conditions display a low level of cell damage as measured by release of cytoplasmic lactate dehydrogenase from cells into the supernatant.

[4] = system: HUVEC cells; assay: HUVEC assay combinations with single pathway activators (TNF-α, IL-1, IFN-γ or activating antibody to p55), biomaps by cell-based ELISA; parameters: species or system human
Description: Confluent cultures of HUVEC cells are treated with TNF-α (5 ng/ml), IFN-γ (100 ng/ml), IL-1 (20 ng/ml), the combination of TNF-α+IFN-γ+IL-1, or media in the presence or absence of Act-anti-p55. After 24 hours, cultures are washed and evaluated for the cell surface expression of ICAM-1 (1), VCAM-1 (2), E-selectin (3), IL-8 (4), and MIG (5) by cell-based ELISA performed as described in FIG. 1. A color-coded representation of the resulting biomaps prepared from the data is shown in FIG. 8, coded as described in FIG. 2B. […]

[5] = system: HUVEC cells; assay: HUVEC in basal medium cultured with factor or agent for 24 hours, cell-based ELISA; parameters: species or system human; conditions: HUVEC cultured with the factor/agent for 24 hours, vs basal medium
Description: After 24 hours, cultures are washed and evaluated for the presence of the parameters ICAM-1 (1), VCAM-1 (2), E-selectin (3), IL-8 (4), CD31 (5), HLA-DR (6) and MIG (7) by cell-based ELISA as described (Melrose, J. Immunol. 161:2457, 1998). For this, plates are blocked with 1% Blotto for 1 hr, and treated with primary antibodies (obtained from Pharmingen and Becton Dickinson) at 1 ng/ml for 2 hr. After washing, secondary peroxidase-conjugated anti-mouse IgG antibody (Promega) at 1:2500 is applied for 45 min. After washing, TMB substrate (Kierkegaard & Perry) is added and color developed. Development is stopped by addition of H2SO4 and the absorbance at 450 nm (subtracting the background absorbance at 600 nm) is read with a Molecular Dynamics plate reader. The relative expression levels of each parameter are indicated by the OD at 450 nm shown along the y-axis. The mean+/−SD from triplicate samples is shown.
After 24 hours, cultures are washed and evaluated for the presence of the parameters ICAM-1 (1), VCAM-1 (2), E-selectin (3), IL-8 (4), CD31 (5), HLA-DR (6) and MIG (7) by cell-based ELISA performed as described in FIG. 1 and are reported as the OD at 450 nm in FIG. 2. The mean+/−SD from triplicate samples are shown. * indicates p<0.05 comparing results obtained with the two separate conditions.
After 24 hours, cultures are washed and evaluated for the presence of the parameters ICAM-1 (1), VCAM-1 (2), E-selectin (3), IL-8 (4), CD31 (5), HLA-DR (6) and MIG (7) by cell-based ELISA performed as described in FIG. 1 and are reported as the OD at 450 nm. The mean+/−SD from triplicate samples are shown. * indicates p<0.05 comparing results obtained with the two separate conditions.

5′-AGGTCAGGCACGGTGGAGAGGC-3′ (all phosphorodiamidate morpholino (PMO)) [TNF-R1 antisense]
biomap versus control oligo upon treatment with TNF-α ([1]; 0.6 μM morpholino, TNF-α (0.5 ng/ml)): altered biomap | induction of ICAM-1 by IL-1 ([1]; IL-1 (1 ng/ml)): no effect | induction of VCAM-1 by IL-1 ([1]; IL-1 (1 ng/ml)): no effect | induction of ICAM-1 by TNF-α ([1]; TNF-α (0.5 ng/ml)): blocks | induction of VCAM-1 by TNF-α ([1]; TNF-α (0.5 ng/ml)): blocks

N#CC(C#N)=Cc1ccc([N+](=O)[O-])c(O)c1 [AG126]
activity (altered biomap) in the optimized assay combination [2]: active compounds

CC(Cc1ccc(O)c(O)c1)C(C)Cc1ccc(O)c(O)c1 (stereo not shown) [NHGA, nordihydroguaiaretic acid]
activity (altered biomap) in the optimized assay combination [2]: altered biomaps

COc1cccc(-c2cc(=O)c3ccccc3o2)c1N [PD098059]
activity (altered biomap) in the optimized assay combination [2]: altered biomaps

S=C(S)N1CCCC1 [PDTC, pyrrolidine dithiocarbamate]
activity (altered biomap) in the optimized assay combination [2]: altered biomaps

O=C(NC1=CC(=O)c2ccccc2C1=O)c1ccccc1 [PPM-18]
cellular toxicity at higher concentrations (2-fold) when tested alone ([2]; 2-fold above PPM-18 2 μM / AG126 25 μM): cellular toxicity | activity (altered biomap) in the optimized assay combination [2]: active compounds

ceramide
release of cytoplasmic lactate dehydrogenase into the supernatant (cell damage) vs basal conditions [3]: enhanced

B1: p55-Fc: recombinant fusion protein containing the extracellular domains of the p55 TNF-α-receptor fused to immunoglobulin Fc domain (protein)
chain: LVPHLGDREKRDSVCPQGKYIHPQNNSICCTKCHKGTYLYNDCPGPGQDTDCRECESGSFTASENHLRHCLSCSKCRKEMGQVEISSCTVDRDTVCGCRKNQYRHYWSENLFQCFNCSLCLNGTVHLSCQEKQNTVCTCHAGFFLRENECVSCSNCKKSLECTKLCLPQIENVKGTEDSGTT
modifications: left off: a dimerising Fc or GST
notes: recombinant fusion protein containing the extracellular domains of the p55 TNF-α-receptor fused to immunoglobulin Fc domain
activity (altered biomap) in the optimized assay combination [2]: active compound | biomap of cultures containing activating antibody to TNF-α-receptor p55: sensitivity to the agent ([4]; Act-anti-p55, 24 hours): is sensitive; also recorded: alters | biomap of the assay combination containing IL-1 alone: sensitivity to the agent ([4]; IL-1, 24 hours): not sensitive | biomap of the assay combination containing TNF-α alone: sensitivity to the agent ([4]; TNF-α (5 ng/ml), 24 hours): altered; also recorded: is sensitive

B2: IFN-γ: cytokine used as factor (protein)
chain: QDPYVKEAENLKKYFNAGHSDVADNGTLFLGILKNWKEESDRKIMQSQIVSFYFKLFKNFKDDQSIQKSVETIKEDMNVKFFNSNKKKRDDFEKLTNYSVTDLNVQRKAIHELIQVMAELSPAAKTGKRKRSQMLFRGRRASQ
level of HLA-DR [5]: increased | level of ICAM-1 [5]: increased | level of MIG [5]: increased

From patent US7912651B2, “Function homology screening” (BioSeek LLC, priority 2000, dated 2011)
